From ChEMBL document CHEMBL1145975, “Tricyclic indole-2-carboxylic acids: highly in vivo active and selective antagonists for the glycine binding site of the NMDA receptor” (J Med Chem, 2003)

Experiments:
[1] = biological target: T1, Glutamate receptor ionotropic, NMDA 1 (Rattus norvegicus, UniProt P35439); experiment: Affinity for glycine site of N-methyl-D-aspartate glutamate receptor determined by displacement of tritium labeled selective glycine antagonist [3H]- SM-18400; assay type: functional
[2] = system: Mus musculus; experiment: Number of mice protected from tonic seizures to that of number tested was determined when compound (3 mg/kg) was administered intravenously to 10 mice; assay type: functional
[3] = organism: Mus musculus; experiment: Effective dose of compound required to inhibit N-methyl D-aspartate induced seizures in mice; assay type: functional
[4] = system: Rattus norvegicus; experiment: Percent of reduction of cortical infarct volume at dose of 20 mg/kg bolus +20 mg/kg/hr continuous infusion was determined in normotensive rats; assay type: functional
[5] = organism: Rattus norvegicus; experiment: Area under the concentration-time curve from time zero to infinity in whole brain homogenates was determined; assay type: ADME, organism-based; conditions: in vivo
[6] = biological target: Glutamate receptor ionotropic, kainate; experiment: Binding affinity for non-NMDA receptor determined by displacement of [3H]- KA (kainic acid) in rat cortical membranes; assay type: cell membranes, Membrane
[7] = Binding affinity for glutamate site of N-methyl-D-aspartate glutamate receptor determined by displacement of [3H]- glutamate in rat cortical membranes; assay type: cell membranes, Membrane
[8] = biological target: T1, Glutamate receptor ionotropic, NMDA 1; experiment: Binding affinity for glycine site of N-methyl-D-aspartate glutamate receptor determined by displacement of [3H]- glycine in rat cortical membranes; assay type: cell membranes, Membrane
[9] = biological target: T1, Glutamate receptor ionotropic, NMDA 1; experiment: Binding affinity for glycine site of N-methyl-D-aspartate glutamate receptor determined by displacement of [3H]- DCKA (5,7-dichlorokynurenic acid) in rat cortical membranes; assay type: cell membranes, Membrane
[10] = biological target: Glutamate receptor ionotropic, AMPA (Rattus norvegicus, UniProt P19490+P19491+P19492+P19493); experiment: Binding affinity for non-NMDA receptor determined by displacement of [3H]- AMPA (2-amino-(3-(3-hydroxy-5-methylisoxazole-4-yl)propanoic acid)) in rat cortical membranes; assay type: cell membranes, Membrane

SMILES | IC50 [1] | No. of protected/tested [2] | ED50 [3] | Cortical infarct volume [4] | AUC [5] | Ki [6] | Ki [7] | Ki [8] | Ki [9] | Ki [10]
NCc1ccc(NC(=O)C[C@@H]2CCc3cc(Cl)cc4[nH]c(C(=O)O)c2c34)c(OCC(=O)O)c1 (stereo in doubt; 3b) | 33 nM |  |  |  |  |  |  |  |  | 
NCc1ccc(NC(=O)C[C@@H]2CCc3cc(Cl)cc4[nH]c(C(=O)O)c2c34)c(OCC(=O)O)c1 (stereo in doubt; 3a) | 1.2 nM | 2 | 5 mg/kg |  |  |  |  |  |  | 
NCc1ccc(NC(=O)C[C@@H]2CCc3cc(Cl)cc4[nH]c(C(=O)O)c2c34)c(CC(=O)O)c1 | 1.5 nM | 5 | 1.8 mg/kg | 30% |  |  |  |  |  | 
NCc1ccc(NC(=O)C[C@@H]2CCc3cc(Cl)cc4[nH]c(=O)c(=O)n2c34)c(OCC(=O)O)c1 | 1 nM | 10 | 0.41 mg/kg | 50% | 3.3 µg·min/g |  |  |  |  | 
C[C@H](C(=O)O)c1cc(CN)ccc1NC(=O)C[C@@H]1CCc2cc(Cl)cc3[nH]c(C(=O)O)c1c23 | 29 nM | 4 | 3.7 mg/kg |  |  |  |  |  |  | 
O=C(O)Cc1ccccc1NC(=O)C[C@@H]1CCc2cc(Cl)cc3[nH]c(C(=O)O)c1c23 | 7.6 nM | 3 |  |  |  |  |  |  |  | 
NCc1ccc(NC(=O)C[C@@H]2CCc3cc(Cl)cc4[nH]c(C(=O)O)c2c34)cc1 | 18 nM | 3 |  |  |  |  |  |  |  | 
O=C(C[C@@H]1CCc2cc(Cl)cc3[nH]c(C(=O)O)c1c23)Nc1ccccc1 | 19 nM | 3 |  |  |  |  |  |  |  | 
C[C@@H](C(=O)O)c1cc(CN)ccc1NC(=O)C[C@@H]1CCc2cc(Cl)cc3[nH]c(C(=O)O)c1c23 | 2.7 nM | 5 | 2.3 mg/kg | 84% | 10 µg·min/g | > 10000 nM | > 10000 nM | 11 nM | 1 nM | > 10000 nM
